Key:
[1] = system: Pseudomonas aeruginosa (ATCC 27883); settings: P. aeruginosa ATCC 27883
[2] = system: Escherichia coli (ATCC 25922); settings: E. coli ATCC 25922
[3] = system: Streptococcus pneumoniae ATCC 49619; settings: S. pneumoniae ATCC 49619
[4] = system: P. aeruginosa (ATCC BAA-1744); experiment: Broad-spectrum activity against Gram-Negative bacteria (MIC); assay type: cell-based; settings: Table 16, Gram-negative panel
[5] = system: Klebsiella pneumoniae ATCC 13883; settings: Table 16, Gram-negative panel
[6] = system: A. baumannii (ATCC BAA-1605); experiment: Broad-spectrum activity against Gram-Negative bacteria (MIC); assay type: cell-based; settings: Table 16, Gram-negative panel
[7] = system: Streptococcus pneumoniae ATCC 51938; settings: S. pneumoniae ATCC 51938
[8] = system: Enterococcus faecalis ATCC 51575; settings: E. faecalis ATCC 51575
[9] = system: Enterococcus faecium ATCC 27270; settings: E. faecium ATCC 27270
[10] = system: B. subtilis (ATCC-6633); experiment: Broad-spectrum activity against Gram-Positive bacteria (MIC); assay type: cell-based; set-up: unit not given here
[11] = system: E. coli (ATCC BAA-2452); experiment: Broad-spectrum activity against Gram-Negative bacteria (MIC); assay type: cell-based; settings: Table 16, Gram-negative panel
[12] = system: S. aureus ATCC 29213; settings: S. aureus ATCC 29213
[13] = system: B. cereus (ATCC-13061); experiment: Broad-spectrum activity against Gram-Positive bacteria (MIC); assay type: cell-based; set-up: unit not given here
[14] = system: Enterococcus faecalis ATCC 29212; settings: E. faecalis ATCC 29212
[15] = system: Klebsiella pneumoniae (ATCC BAA-1705); settings: Table 16, Gram-negative panel
[16] = system: Methicillin-resistant Staphylococcus aureus MRSA (ATCC BAA-1556); settings: MRSA ATCC BAA-1556
[17] = system: Enterococcus faecium ATCC 700221; settings: E. faecium ATCC 700221
[18] = system: P. aeruginosa (ATCC 10145); experiment: Broad-spectrum activity against Gram-Negative bacteria (MIC); assay type: cell-based; settings: Table 16, Gram-negative panel

c[arg-arg-Arg-Arg-naI-trp-naI] [IFX-138]
MIC P. aeruginosa ATCC 27883 [1]: 32 µg/mL
MIC E. coli ATCC 25922 [2]: 16 µg/mL
Broad-spectrum activity S. pneumoniae (ATCC 49619) [3]: 50
MIC P. aeruginosa (ATCC BAA-1744) [4]: 50 µg/mL
MIC K. pneumonia (ATCC 13883) [5]: 50 µg/mL
MIC A. baumannii (ATCC BAA-1605) [6]: 25 µg/mL
Broad-spectrum activity S. pneumoniae (ATCC 51938) [7]: 25
Broad-spectrum activity E. faecalis (ATCC 51575) [8]: 6.2
Broad-spectrum activity E. faecium (ATCC 27270) [9]: 3.1
Broad-spectrum activity B. subtilis (ATCC-6633) [10]: 3.1
MIC E. coli (ATCC BAA-2452) [11]: 12.5 µg/mL
MIC S. aureus ATCC 29213 [12]: 1.5 µg/mL
Broad-spectrum activity B. cereus (ATCC-13061) [13]: 6.2
Broad-spectrum activity E. faecalis (ATCC 29212) [14]: 6.2
MIC K. pneumonia (ATCC BAA-1705) [15]: 50 µg/mL
MIC MRSA ATCC BAA-1556 [16]: 3.1 µg/mL
Broad-spectrum activity E. faecium (ATCC 700221) [17]: 6.2
MIC P. aeruginosa (ATCC 10145) [18]: 50 µg/mL

c[arg-arg-arg-arg-Dip-Trp-Dip] [IFX-099]
MIC P. aeruginosa ATCC 27883 [1]: 12.5 µg/mL
MIC E. coli ATCC 25922 [2]: 6.2 µg/mL
Broad-spectrum activity S. pneumoniae (ATCC 49619) [3]: 25
MIC P. aeruginosa (ATCC BAA-1744) [4]: 25 µg/mL
MIC K. pneumonia (ATCC 13883) [5]: 50 µg/mL
MIC A. baumannii (ATCC BAA-1605) [6]: 12.5 µg/mL
Broad-spectrum activity S. pneumoniae (ATCC 51938) [7]: 12.5
Broad-spectrum activity E. faecalis (ATCC 51575) [8]: 12.5
Broad-spectrum activity E. faecium (ATCC 27270) [9]: 3.1
Broad-spectrum activity B. subtilis (ATCC-6633) [10]: 1.5
MIC E. coli (ATCC BAA-2452) [11]: 25 µg/mL
MIC S. aureus ATCC 29213 [12]: 1.5 µg/mL
Broad-spectrum activity B. cereus (ATCC-13061) [13]: 3.1
Broad-spectrum activity E. faecalis (ATCC 29212) [14]: 6.2
MIC K. pneumonia (ATCC BAA-1705) [15]: 25 µg/mL
MIC MRSA ATCC BAA-1556 [16]: 1.5 µg/mL
Broad-spectrum activity E. faecium (ATCC 700221) [17]: 6.2
MIC P. aeruginosa (ATCC 10145) [18]: 25 µg/mL

c[arg-arg-arg-arg-NaI-trp-NaI] [IFX-141]
MIC P. aeruginosa ATCC 27883 [1]: 32 µg/mL
MIC E. coli ATCC 25922 [2]: 32 µg/mL
Broad-spectrum activity S. pneumoniae (ATCC 49619) [3]: 50
MIC P. aeruginosa (ATCC BAA-1744) [4]: 25 µg/mL
MIC K. pneumonia (ATCC 13883) [5]: 50 µg/mL
MIC A. baumannii (ATCC BAA-1605) [6]: 12.5 µg/mL
Broad-spectrum activity S. pneumoniae (ATCC 51938) [7]: 12.5
Broad-spectrum activity E. faecalis (ATCC 51575) [8]: 12.5
Broad-spectrum activity E. faecium (ATCC 27270) [9]: 6.2
Broad-spectrum activity B. subtilis (ATCC-6633) [10]: 1.5
MIC E. coli (ATCC BAA-2452) [11]: 25 µg/mL
MIC S. aureus ATCC 29213 [12]: 3.1 µg/mL
Broad-spectrum activity B. cereus (ATCC-13061) [13]: 3.1
Broad-spectrum activity E. faecalis (ATCC 29212) [14]: 6.2
MIC K. pneumonia (ATCC BAA-1705) [15]: > 50 µg/mL
MIC MRSA ATCC BAA-1556 [16]: 6.2 µg/mL
Broad-spectrum activity E. faecium (ATCC 700221) [17]: 6.2
MIC P. aeruginosa (ATCC 10145) [18]: 25 µg/mL

c[arg-arg-arg-arg-dip-Trp-dip] [IFX-095]
MIC P. aeruginosa ATCC 27883 [1]: 12.5 µg/mL
MIC E. coli ATCC 25922 [2]: 12.5 µg/mL
Broad-spectrum activity S. pneumoniae (ATCC 49619) [3]: 50
MIC P. aeruginosa (ATCC BAA-1744) [4]: 25 µg/mL
MIC K. pneumonia (ATCC 13883) [5]: 50 µg/mL
MIC A. baumannii (ATCC BAA-1605) [6]: 12.5 µg/mL
Broad-spectrum activity S. pneumoniae (ATCC 51938) [7]: 12.5
Broad-spectrum activity E. faecalis (ATCC 51575) [8]: 12.5
Broad-spectrum activity E. faecium (ATCC 27270) [9]: 3.1
Broad-spectrum activity B. subtilis (ATCC-6633) [10]: 1.5
MIC E. coli (ATCC BAA-2452) [11]: 25 µg/mL
MIC S. aureus ATCC 29213 [12]: 3.1 µg/mL
Broad-spectrum activity B. cereus (ATCC-13061) [13]: 3.1
Broad-spectrum activity E. faecalis (ATCC 29212) [14]: 6.2
MIC K. pneumonia (ATCC BAA-1705) [15]: 12.5 µg/mL
MIC MRSA ATCC BAA-1556 [16]: 3.1 µg/mL
Broad-spectrum activity E. faecium (ATCC 700221) [17]: 6.2
MIC P. aeruginosa (ATCC 10145) [18]: 25 µg/mL

c[arg-arg-arg-arg-dip-dip-dip] [IFX-067]
MIC P. aeruginosa ATCC 27883 [1]: 12.5 µg/mL
MIC E. coli ATCC 25922 [2]: 6.2 µg/mL
Broad-spectrum activity S. pneumoniae (ATCC 49619) [3]: 25
MIC P. aeruginosa (ATCC BAA-1744) [4]: 25 µg/mL
MIC K. pneumonia (ATCC 13883) [5]: > 50 µg/mL
MIC A. baumannii (ATCC BAA-1605) [6]: 12.5 µg/mL
Broad-spectrum activity S. pneumoniae (ATCC 51938) [7]: 12.5
Broad-spectrum activity E. faecalis (ATCC 51575) [8]: 6.2
Broad-spectrum activity E. faecium (ATCC 27270) [9]: 3.1
Broad-spectrum activity B. subtilis (ATCC-6633) [10]: 1.5
MIC E. coli (ATCC BAA-2452) [11]: 12.5 µg/mL
MIC S. aureus ATCC 29213 [12]: 3.1 µg/mL
Broad-spectrum activity B. cereus (ATCC-13061) [13]: 3.1
Broad-spectrum activity E. faecalis (ATCC 29212) [14]: 6.2
MIC K. pneumonia (ATCC BAA-1705) [15]: 25 µg/mL
MIC MRSA ATCC BAA-1556 [16]: 1.5 µg/mL
Broad-spectrum activity E. faecium (ATCC 700221) [17]: 3.1
MIC P. aeruginosa (ATCC 10145) [18]: 50 µg/mL
